The target of one assay is T1, muscarinic M2 receptor (Homo sapiens, UniProt P08172).
T1 construct: The human bladder smooth muscle Cells (hBdSMC) where the muscarinic M2 receptor had been expressed were purchased from Lonza; host or cells: human bladder smooth muscle cells (hBdSMC)
T1 sequence (P08172 1-466): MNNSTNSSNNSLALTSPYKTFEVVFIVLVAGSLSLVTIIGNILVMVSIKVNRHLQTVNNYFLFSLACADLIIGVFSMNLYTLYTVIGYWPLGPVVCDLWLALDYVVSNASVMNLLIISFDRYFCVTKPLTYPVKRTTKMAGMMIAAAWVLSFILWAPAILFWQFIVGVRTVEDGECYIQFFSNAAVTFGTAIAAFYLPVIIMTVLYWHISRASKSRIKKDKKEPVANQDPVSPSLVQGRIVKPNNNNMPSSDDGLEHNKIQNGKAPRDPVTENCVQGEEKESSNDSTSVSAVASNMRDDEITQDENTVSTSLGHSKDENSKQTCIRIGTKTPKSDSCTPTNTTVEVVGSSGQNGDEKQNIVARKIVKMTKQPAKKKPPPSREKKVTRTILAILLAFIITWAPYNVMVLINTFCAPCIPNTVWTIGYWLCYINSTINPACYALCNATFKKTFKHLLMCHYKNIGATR
The assay can be described thus: Relief of acetylcholine inhibition of forskolin-induced cAMP in human bladder smooth muscle cells (ELISA). Particulars: 10 μM, with Forskolin 10 μM + ACh 10 μM. Format: cell-based. An excerpt: It is known that when muscarinic M2 receptor, which is one of GPCR (G protein-coupled receptors), is coupled with acetylcholine being an agonist it inhibits activity of adenylyl cyclase enzyme to decrease a concentration of cAMP in cells, in which if the amount of cAMP increases, detrusor is relaxed, or otherwise if the amount of cAMP decreases, detrusor is contracted. Therefore, in confirming improvement of voiding dysfunction, it is important to identify an effect of being capable of increasing or decreasing the amount of cAMP. Accordingly, it was identified whether or not the extract of Piper Longum L. has activity of inhibiting muscarinic receptor that may inhibit decrease of a concentration of cAMP by acetylcholine, by pre-treating 95% by volume of aqueous solution of ethanol extract of Piper Longum L., treating it with acetylcholine which may serve as an activator of muscarinic M2 receptor to induce decrease of a concentration of cAMP, and treating it with Forskolin that may raise a concentration of cAMP in cells. More specifically, the procedure is as follows.
The human bladder smooth muscle Cells (hBdSMC) where the muscarinic M2 receptor had been expressed were purchased from Lonza (cambrex), and used. […] The amount of cAMP in cells was evaluated by measuring absorbance (408 nm) with an ELISA kit from the supernatant taken after centrifuging cells dissolved in 0.1M HCl.
(An ELISA detects its analyte on a solid surface through an enzyme-linked reagent.)

Assay [1] has as its system CYP-induced cystitis rat model. Put plainly: Cystometry in CYP-induced cystitis model after dosing for 3 days (Example 6.2). Format: in vivo. Particulars: extract 200 mg/kg from 3 days before cystometry; oxybutynin 0.3 mg/kg via caudal vein on the day. How it is done:
65 of specific pathogen-free (SPF) SD female rats were purchased from ORIENT (Korea) and used. Day and night were controlled by a 12 hour cycle, and they were allowed to access to food and water freely.
(§1) To measure bladder pressure, bladder capacity and voiding volume, which are parameters for identifying improvement of voiding dysfunction, cyclophosphamide (150 mg/kg) was once intraperitoneally administered to rats excluding a normal control group to induce irritable bladder symptoms at 3 days before cystometry. From 3 Days before cystometry, a solvent (DMSO/10% Cremophor EL=1:9, vol/vol) had been administrated to a solvent control group, and 95% by volume of aqueous ethanol solution extract of Piper Longum L. fruits prepared in Preparation Example 4.1 had been administrated to an experimental group at 200 mg/kg. In addition, oxybutynin as a positive control group was injected via a caudal vein at 0.3 mg/kg on the day of experiment.
(§2) For cystometry and injection of a physiological saline solution, instruments for cystometry and insertion of a bladder vessel were the same as in the above Example 5.2, and voiding volume and residual volume were recorded by sampling urine in a 1.5 ml tube and measuring its weight.
The basal pressure (BP), threshold pressure (TP), micturition pressure (MP) and micturition interval (MI) which are defined as in the above Example 5.2. In addition, a voiding volume being an parameter of volume parameter was defined by sampling urine in a 1.5 ml tube on the last voiding during urodynamic measurements and measuring its weight. After completing micturition, a residual volume was defined by placing the catheter inserted into bladder at the lower portion than the rat and measuring the weight of the obtained physiological saline. A bladder capacity (BC) was calculated by combining the measured residual volume (RV) and voiding volume (VV) of the rat.
The voiding cycles were measured for 120 minutes, and the average values of each parameter were calculated by selecting the most representative 5 continuous cycles among the measured voiding cycles.

The test system of assay [2] is CYP-induced cystitis rat model. The assay can be described thus: Cystometry in CYP-induced cystitis model, ethanol and water extracts (Example 6.3). Format: in vivo. As to conditions: extracts 200 mg/kg, oxybutynin 0.3 mg/kg. How it is done: as §1, §2
The basal pressure (BP), threshold pressure (TP), micturition pressure (MP) and micturition interval (MI) which are defined as in the above Example 5.2. […] A bladder capacity (BC) was calculated by combining the measured residual volume (RV) and voiding volume (VV) of the rat. […]

Assay [3] concerns spontaneously hypertensive rat (SHR). Put plainly: Urodynamic study in SHR under un-anesthesia. Format: in vivo. How it is done:
12˜18 Week-old male SHRs were purchased from Charles River (Japan) and used. Day and night were controlled by a 12 hour cycle, and they were allowed to access to food and water freely. All the rats had to urinate at 3-5 cycles under a condition with no administration. The micturition parameters of rats under a condition with no administration were considered as control groups for urodynamic parameters, while the rats, to which the water extract of Piper Longum L. fruits prepared in Preparation Example 4.2 was directly administered into gastrointestinal tracts at 300 mg/kg via catheters coupled to stomachs, became experimental groups. As a positive control group, rats administered with tolterodine at 1 mg/kg were used. The Piper Longum L. water extract and tolterodine-dosing groups were each set by 6 rats.
To measure bladder pressure, bladder capacity, voiding volume and micturition interval, which are parameters for identifying improvement of voiding dysfunction, insertion of a bladder tube and a vessel for measuring an abdominal pressure was carried out in SHR models. For cystometry and injection of a physiological saline solution, a rat was incised in center of its lower abdomen 3 days before the day of measuring urodynamic parameters, and a cuffed polyethylene catheter with a cuff (PE-50, Becton Dickinson, Parsippany, USA) was fixed on its bladder dome with purse-string suture. In addition, a polyethylene catheter (PE-10, Becton Dickinson, Parsippany, USA) with a balloon for measuring abdominal pressure was fixed on the bladder, and another polyethylene catheter (PE-10, Becton Dickinson, Parsippany, USA) was fixed following being inserted in the gastrointestinal tract. The above catheters were passed through beneath skin, and then fixed on dorsal skin, the ends of which were closed by applying heat. An un-anesthetized rat being free was placed in a metabolic cage at 3 days after inserting a bladder tube and a vessel for measuring an abdominal pressure. The tube on the back of its neck was coupled to a microinjection pump (PHD22/2000 pump; Harvard Apparatus) and a pressure transducer (Research Grade Blood Pressure Transducer; Harvard Apparatus, Holliston, USA) with a T-tube, and then intravesical pressures were measured, with injecting the physiological saline solution at room temperate at a speed of 10 ml/hour. It is to measure intravesical pressures in the rat using a principle that when a predetermined volume of physiological saline solution is filled in the bladder, it is contracted to urinate. The abdominal pressure was measured by coupling the vessel for measuring abdominal pressure to the other pressure transducer. Also, to measure a voiding volume being an indicator of volume parameter, the voiding volume was measured from a urine amount collected in a urine collector cup (fluid collector) coupled to a force displacement transducer (Research Grade Isometric Transducer; Harvard Apparatus).
Beginning to measure urodynamic parameters before administration of the extracts of Piper Longum L. and tolterodine, records of 3 to 5 stabilized micturition cycles were obtained. Then, the Piper Longum L. extracts and tolterodine were orally administered after decoupling the catheter. The catheters were again coupled thereto 20 minutes after oral administration of drugs, and voiding cycles and urodynamic study were carried out by having the rat to urinate 3 to 5 times. The average values of each parameter were measured by selecting the most representative 3 continuous cycles from voiding cycles measured before and after administration of drug.
In 3 repeated voiding cycles, a basal pressure (BP), which is an parameter of intravesical pressure, is the lowest pressure in cystometry, a threshold pressure (TP) is a pressure immediately before micturition contraction, and a micturition pressure (MP) means the maximum bladder pressure represented on voiding. […]

The mark [4] stands for this setting: After Dosing, water extract 300 mg/kg, tolterodine 1 mg/kg.
The mark [5] stands for this setting: after vs before dosing, increase.

As to `CCN(CC)CC#CCOC(=O)C(O)(c1ccccc1)C1CCCCC1` (stereo not drawn) [Oxybutynin, oxybutynin], at muscarinic M2 receptor, the cAMP is 28.21 pmol/mL and the “cAMP, % of forskolin” value came to 91.39%. Further, in assay [1], the “BC (bladder capacity)” value amounted to 0.46 ± 0.14 mL, the “BP (basal pressure)” value was determined as 9.7 ± 3.1 cm H2O, the “MI (micturition interval)” value was found to be 221.54 ± 75.20 s and the “MP (micturition pressure)” value was 29.2 ± 7.9 cm H2O. Besides, in assay [1], the “RV (residual volume)” value was found to be 0.30 ± 0.13 mL, the “TP (threshold pressure)” value turned out to be 17.6 ± 4.3 cm H2O and the “VV (voiding volume)” value was 0.16 ± 0.08 mL. Besides, in assay [2], the “MI (micturition interval)” value was 248.50 ± 144.43 s and the “VV (voiding volume)” value was determined as 0.24 ± 0.15 mL.
On to `Cc1ccc(O)c([C@H](CCN(C(C)C)C(C)C)c2ccccc2)c1` [Tolterodine, tolterodine], for which, in assay [3] (setting [4]), the “BC (bladder capacity)” value is 0.41 ± 0.03 mL, the “BP (basal pressure)” value is listed as 4.8 ± 1.1 cmH2O, the “MI (micturition interval)” value was determined as 365.4 ± 31.8 s and the “MP (micturition pressure)” value is listed as 50.5 ± 1.7 cmH2O. Also, in assay [3] (setting [4]), the “RV (residual volume)” value is 0 ± 0 mL, the “TP (threshold pressure)” value was determined as 18.1 ± 1.7 cmH2O and the “VV (voiding volume)” value was 0.41 ± 0.03 mL. For the same molecule, in assay [3] (setting [5]), the “BC, Percentage Change (%)” value came to 36.7% ↑; the “MI, Percentage Change (%)” value came out at 46.4% ↑; the “VV, Percentage Change (%)” value turned out to be 36.7% ↑.

These data come from patent US10172899B2, “Composition for preventing, treating and improving of voiding dysfunction comprising extract from Piper longum L” (priority 2014, dated 2019).
